Laboratory results: patent EP4660196A1, “CRYSTAL FORM OF COMPOUND, PREPARATION METHOD THEREFOR AND USE THEREOF” (Felicamed Biotechnology Co., Ltd., priority 2023, dated 2024)
Values joined by “and” are separate entries in the source; they are usually repeats but may differ in a detail not shown here. Equal values may be shown once. Where a name gives a salt, the structure may show the parent alone. Read-outs that look alike come from different tables or passages of the source.

What was measured:
[1] = for Carr index: (tapped density - bulk density) / tapped density; for Average angle of repose (°) / Average bulk density / Average tapped density: mean of three tests
Protocol: A method for testing the density and the tapped density included: (1) a certain mass of to-be-assessed sample was placed into a 5 mL measuring cylinder, and the volume at this moment was recorded. The bulk density was calculated by dividing the mass of the sample by the volume at this moment. (2) The measuring cylinder was slightly tapped 200 times, the final volume was recorded, and the tapped density was calculated by dividing the mass of the sample by the final volume. (3) Three parallel tests were conducted. A method for testing the angle of repose included: (1) a funnel was fixed vertically to a bottom surface, and the material was slowly placed into the funnel. (2) A well-proportioned cone of the material was formed on the bottom surface. The height and bottom surface diameter of the cone were measured. (3) Three parallel tests were conducted.
Angle of repose α = […], where h is the cone height, and D is the cone diameter.

[2] = Solid-state stability (XRPD, UPLC purity); conditions: for Crystal form Transform: XRPD; for Purity (area%): starting purity 99.82 (hydrochloride), 99.72 (free); for Area (%): UPLC main peak (#Peak 1, RRT 1.00)
[3] = Pharmacokinetics of hydrochloride crystal form A in Beagle dogs (intragastric); assay type: in vivo; conditions: dog
Protocol: Three 31-month-old male Beagle dogs used in this experiment were purchased from Beijing Marshall Bioresources Co., Ltd., with the animal qualification certificate No. 110318201100056783.
In this experiment, three male Beagle dogs were randomly selected for administration. All the animals were fasted for at least 12 h before administration and were fed again 4 h after administration. […] Table 28 Administration methods for animals
The blood samples from the animals were collected through the jugular vein, with a blood sample volume of 0.5 mL/time. All collected whole blood samples were placed in centrifuge tubes containing EDTA-K2, and the centrifuge tubes were turned upside down to allow the anticoagulant and blood to be fully mixed. All the blood samples were placed on wet ice before centrifugation and centrifuged at 1500 g for 10 min to separate plasma. The plasma samples were transferred to sample tubes and stored at -40°C to […] until analysis.
The drug concentration in the plasma of each Beagle dog was detected by an LC-MS/MS method. […]

[4] = assay type: physicochemical; conditions: 37°C; for S: solubility: calculated as free form; for pH: pH of filtrate
[5] = Mechanical stability (grinding, tableting at 350 MPa, XRPD); assay type: physicochemical
[6] = assay type: physicochemical; conditions: 24 h; for S: solubility / pH: room temperature; for S: solubility: calculated as free form; for FC: crystal transfer: XRPD of solid; for pH: pH of filtrate
[7] = DVS
Protocol: DVS isotherms were collected on an SMS (Surface Measurement Systems) DVS Intrinsic. Relative humidity at 25°C was calibrated using the deliquescence points of LiCl, Mg(NO3)2, and KCl. Table 9 DVS testing parameters

[8] = listed as hydrochloride crystal form A
[9] = single values of three parallel tests

With `CC[S@@](=N)(=O)C[C@H]1CC[C@H](N(C)c2ncnc3[nH]ccc23)CC1` [Hydrochloride crystal form A] the Carr index [1] was 41%, the Carr index [1, 8] was 41% and the “Average angle of repose (°)” value [1] was 33.9 °. The “Average bulk density” value [1] was 0.14 g/mL, the “Average tapped density” value [1] was 0.24 g/mL and the “Average angle of repose (°)” value [1, 8] was 33.9 °. The “Average bulk density” value [1, 8] was 0.14 g/mL, the “Average tapped density” value [1, 8] was 0.24 g/mL and the “Angle of repose (°)” value [1, 9] was 33.7 ° and 37.2 ° and 30.8 °. For the same compound, the “Bulk density” value [1, 9] was 0.14 g/mL and 0.13 g/mL, the “Tapped density” value ([1]; tapped 200 times, single values of three parallel tests) was 0.23 g/mL and 0.25 g/mL and the “Crystal form Transform” value ([2]; 25°C/60% RH/4 weeks, open) was “No”. For the same compound, the “Purity (area%)” value ([2]; 25°C/60% RH/4 weeks, open) was 99.88 area%, the “Crystal form Transform” value ([2]; 40°C/75% RH/4 weeks, open) was “No” and the “Purity (area%)” value ([2]; 40°C/75% RH/4 weeks, open) was 99.88 area%. For the same compound, the “Crystal form Transform” value ([2]; 80°C/1 d, closed) was “No”, the “Area (%)” value ([2]; 25°C/60% RH/4 weeks) was 99.88% and the “Area (%)” value ([2]; 40°C/75% RH/4 weeks) was 99.88%. For the same compound, the “Area (%)” value ([2]; 80°C/1 d) was 99.87%, the clinical observation ([3]; in vivo) was “no obvious abnormalities were found” and the k el ([3]; plasma, po, 6 mg/kg) was 5.39e-05 s⁻¹. The “S: solubility” value ([4]; FaSSIF, 1 h, 60 min) was greater than 9500 µg/mL, the “S: solubility” value ([4]; FaSSIF, 2 h, 120 min) was greater than 9700 µg/mL and the “S: solubility” value ([4]; FaSSIF, 4 h, 240 min) was greater than 9800 µg/mL. For the same compound, the “S: solubility” value ([4]; FaSSIF, 24 h, 1440 min) was greater than 9600 µg/mL, the “S: solubility” value ([4]; FeSSIF, 1 h, 60 min) was greater than 10400 µg/mL and the “S: solubility” value ([4]; FeSSIF, 2 h, 120 min) was greater than 10200 µg/mL. For the same compound, the “S: solubility” value ([4]; FeSSIF, 4 h, 240 min) was greater than 10200 µg/mL, the “S: solubility” value ([4]; FeSSIF, 24 h, 1440 min) was greater than 10000 µg/mL and the “S: solubility” value ([4]; H2O, 1 h, 60 min) was greater than 9300 µg/mL. The “S: solubility” value ([4]; H2O, 4 h, 240 min) was greater than 9500 µg/mL, the “S: solubility” value ([4]; SGF, 1 h, 60 min) was greater than 9800 µg/mL and the “S: solubility” value ([4]; SGF, 2 h, 120 min) was greater than 9900 µg/mL. The “S: solubility” value ([4]; SGF, 4 h, 240 min) was greater than 9800 µg/mL, the “S: solubility” value ([4]; SGF, 24 h, 1440 min) was greater than 10300 µg/mL and the pH ([4]; FaSSIF, 1 h) was 5.0. For the same compound, the pH ([4]; FaSSIF, 2 h) was 5.1, the pH ([4]; FaSSIF, 4 h) was 5.1 and the pH ([4]; FaSSIF, 24 h) was 5.0. It also gave a pH ([4]; FeSSIF, 1 h) of 4.9, a pH ([4]; FeSSIF, 2 h) of 4.9 and a pH ([4]; FeSSIF, 4 h) of 4.9. It also gave a pH ([4]; FeSSIF, 24 h) of 4.8, a pH ([4]; H2O, 1 h) of 4.0 and a pH ([4]; H2O, 2 h) of 4.0. The pH ([4]; H2O, 4 h) was 4.0, the pH ([4]; H2O, 24 h) was 4.0 and the pH ([4]; SGF, 1 h) was 2.9. The pH ([4]; SGF, 2 h) was 3.0, the pH ([4]; SGF, 4 h) was 3.0 and the pH ([4]; SGF, 24 h) was 2.9. For the same compound, the “Results of mechanical stability After grinding” value ([5]; manual grinding) was “The crystal form remains unchanged”, the “Results of mechanical stability After tableting” value ([5]; tablet press, 350 MPa) was “The crystal form remains unchanged, but the crystallinity is slightly reduced” and the “S: solubility” value ([6]; Buffer (pH=2.0)) was greater than 9500 µg/mL. For the same compound, the “S: solubility” value ([6]; Buffer (pH=7.4)) was 2500 µg/mL, the “FC: crystal transfer” value ([6]; Buffer (pH=7.4)) was “Yes” and the “FC: crystal transfer” value ([6]; Buffer (pH=7.4), listed as hydrochloride crystal form A) was “transformed into the free crystal form A”. The pH ([6]; Buffer (pH=2.0)) was 3.5, the pH ([6]; Buffer (pH=4.5)) was 4.4 and the pH ([6]; Buffer (pH=7.4)) was 6.2. The “Hygroscopic weight gain (wt%) at 25°C/80% RH” value [7] was 0.47 wt% and the “Hygroscopic weight gain (wt%) at 25°C/80% RH” value [7, 8] was 0.47 wt%.
